US11890279B2, “Quinolines that modulate SERCA and their use for treating disease” (Neurodon Corporation, priority 2020, dated 2024)

Experiments:
N2a cells [1] = experiment: Protection against thapsigargin (TG)-induced cell death, N2a; format: cell-based, mouse; settings: compound 20 μM; thapsigargin 1 μM; 24 hrs
How it was run: (§1)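 Cells pretreated with 20 μM compound for 2 h, then thapsigargin (15 μM HEK293, 1 μM N2a) for 24 h to induce ER stress. Viability by AlamarBlue fluorescence at 2 h as % RFU of control, binned A–D by % cell rescue.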

N2a cells [2] = experiment: Protection against hydrogen peroxide-induced cell death, N2a; format: cell-based, mouse; settings: compound 40 μM; hydrogen peroxide 200 μM
How it was run: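 N2a cells were pretreated 2 h with compound at 40 μM, then exposed to 200 μM H2O2 for 40 min. AlamarBlue (10% v/v) was added and fluorescence read 2 h later. Viability expressed as % RFU of control, reported as % cell rescue.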

Ca^2+-ATPase = experiment: Ca2+-ATPase assay, microsomal preparations from HEK 293 cells; format: biochemical, human
Experimental: A Ca^2+-ATPase assay was performed using microsomal preparations from HEK 293 cells at a series of calcium concentrations corresponding to the physiological range, relative to controls. The ATP hydrolysis rate was measured over a range of calcium concentrations in the presence of test compounds using an NADH-linked, enzyme-coupled ATPase assay adapted for 96-well microplates, with Vmax determined by fitting the ATPase calcium-dependence to the Hill function. […] CaCl2 was added to set free [Ca^2+] to the specific values.

human islet microtissues = experiment: Protection of human pancreatic islets under cytokine stress; format: cell-based; settings: 168 h, compound 5 μM, cytokine cocktail IL1-β, IFN-γ, TNF-α, 7 days, read-out: increase in viability over baseline (total ATP content)
Experimental: Human pancreatic islet microtissues treated with cytokines were used to model the conditions of Type 1 Diabetes in vitro. This study tested the effects of compounds on […] viability in human islets under cytokine stress. The model consisted of human islet microtissues from an HLA-A2 positive donor grown and separated in a 96-well plate (1 microtissue per well). The microtissues were treated for 7 days with a cocktail of cytokines (IL1-β 5 ng/mL, IFN-γ 25 ng/mL, TNF-α 25 ng/mL) and compound (5 μM) or vehicle. There were 6 microtissues treated per compound or vehicle. At day 7, the total ATP content was measured using CellTiter-Glo (Promega).

HEK293 cells = experiment: Protection against thapsigargin (TG)-induced cell death, HEK293; format: cell-based, human; settings: compound 20 μM; thapsigargin 15 μM; 24 hrs
How it was run: as §1

ob/ob mice = experiment: Effect on the level of blood glucose in ob/ob mice; format: in vivo, mouse; settings: for blood glucose: 10 or 50 mg/kg i.p. once a day for 5 days, as early as day 2; for glucose level after the last injection: for over a week after the last injection
Experimental: Fasting glucose was measured at baseline and 10 hours after the administration of the test compound. Glucose levels were measured in blood samples drawn from the tail vein using the OneTouch Ultra 2 Meter (LifeScan, Inc.).

livers of ob/ob mice = experiment: Reduction of ER stress markers in liver of ob/ob mice (western blot); format: in vivo, mouse; settings: 50 mg/kg
Experimental: Proteins were analyzed by western blot and quantified. Bands were normalized to GAPDH and expressed as 100% of ob/ob+vehicle (ob). Liver tissues were homogenized with a bench-top homogenizer in an ice-cold tissue lysis buffer. The homogenized samples were centrifuged at 8,000×g for 20 min at 4° C. The lipid layer was removed and the supernatant was transferred into Eppendorf tubes. After centrifuging at 16,000×g for 60 min at 4° C., the supernatants were normalized to the same concentration and boiled at 100° C. in 1× Laemmli buffer for 5 min. The lysate was cooled to room temperature before loading for Western blot analysis. Protein lysate was resolved on SDS polyacrylamide gel and transferred onto PVDF membrane at a voltage of 100 V for 2 hrs at 4° C. The membrane was blocked in 10% blocking reagent and incubated overnight with a primary antibody in Tris-buffered saline solution/Tween (TBST)/10% blocking reagent at 4° C. After incubation, the membrane was washed three times in TBST for 20 min and incubated at room temperature with a secondary antibody in TBST/10% blocking reagent for 1 hr. The membrane was washed three times for 20 min and developed using a chemiluminescence assay system. To strip a membrane for another primary antibody, the membrane was agitated at 50° C. for 20 min in a box with stripping buffer (2% SDS and 100 mM 2-mercaptoethanol in TBS, pH 7.5). […]

SMILES | N2a Cells (TG-induced) cell rescue (N2a cells [1]) | N2a Cells (H2O2-induced) cell rescue (N2a cells [2]) | increase in baseline ATPase activity (Ca^2+-ATPase) | viability at 5 µM (human islet microtissues) | HEK293 Cells (TG-induced) cell rescue (HEK293 cells) | blood glucose (ob/ob mice) | glucose level after the last injection (ob/ob mice) | phosphorylation of PERK and elF2α (livers of ob/ob mice)
Cc1ccc2cccc(NC(=O)c3ccc(OC(C)C)cc3)c2n1 [Compound A12, 4-Isopropoxy-N-(2-methylquinolin-8-yl)benzamide] | B (B represents a value between 10% to 50% cell rescue) | B (B represents a value between 10% to 50% cell rescue) | 10-15% | 20 to 50% | A (A represents a value greater than 50% cell rescue) | significantly lowered | identical to lean mice | significantly reduced
Cc1ccc2cccc(NC(=O)c3ccc(N(C)C)cc3)c2n1 [Compound C18, 4-N,N-Dimethylamino-N-(2-methylquinolin-8-yl)benzamide] | A (A represents a value greater than 50% cell rescue) | B (B represents a value between 10% to 50% cell rescue) | greater than 15% | > 50% | A (A represents a value greater than 50% cell rescue) | significantly lowered | identical to lean mice | significantly reduced
